For the assay, the system named is 171881-019-R-J1-PDC multicell spheroid viability. In words: Anticancer human tumor 171881-019-R-J1-PDC patient-derived invasive breast carcinoma cell line growth inhibition [IpAb]. To be noted: for viability, T/C: stronger effect = lower value. An excerpt:
Combinatorial screen of targeted agents with ipatasertib and abemaciclib in multi-cell type tumor spheroids
A high-throughput screen of multi-cell type tumor spheroids was designed to identify active combinations of targeted small molecules and ipatasertib or abemaciclib. Complex spheroids include a stromal component modeled by human endothelial cells (HUVEC) and fibroblasts modeled by human mesenchymal stem cells (MSCs). The concentration ranges selected for each drug and investigational agent were based upon clinically achievable concentrations if the clinical Cmax of the agent was known.
Compounds. The drugs and investigational agents: ipatasertib (NSC767898), abemaciclib(NSC768073), selumetinib (NSC741078), trametinib (758246), adavosertib (NSC754352), everolimus (NSC733504), sapanisertib (NSC764658), vemurafenib (NSC761431), venetoclax (NSC766270), copanlisib (NSC809693), apelisib (NSC765974), palbociblib (NSC758247), vemurafenib (NSC761431), dabrafenib (NSC764134), ravoxertinib (NSC781343), BMS-387032 (NSC767048), sotorasib (NSC818433), talazoparib (NSC767125) and afursertib (NSC778305), were obtained from the National Cancer Institute (NCI) Developmental Therapeutics Program Chemical Repository. The FDA-approved anticancer drug set is available from the NCI Developmental Therapeutics Program. […] The stock solutions were prepared in dimethyl sulfoxide (DMSO, Sigma-Aldrich, St. Louis, MO, cat. D2650) at 800-fold the tested concentration and stored at -70 degrees C prior to their use. All drugs and investigational agents were tested over a range starting from a high concentration at or near the clinical Cmax and decreasing in half-log increments. If the clinical Cmax for an agent had not been determined, the highest concentration tested was 10 microM.
NCI60 Cell Culture. NCI60 cell lines were obtained from the NCI Developmental Therapeutics Program Tumor Repository. For each lot of cells, the Repository performed Applied Biosystems AmpFLSTR Identifiler testing with PCR amplification to confirm consistency with the published Identifier STR profile for each cell line. Cells were kept in continuous culture for no more than 20 passages. The optimal seeding densities for each of the cell lines at each time point assessed were determined prior to performing the concentration response studies. Briefly, the NCI60 human tumor lines were grown as monolayers in RPMI 1640 medium supplemented with 10% FBS and 2 mmol/L L-glutamine.
An additional 9 lines were from the NCI60 cell line panel including MDA-MB-231 breast carcinoma, MDA-MB-468 breast carcinoma, MCF7 breast carcinoma, Hs578T breast carcinoma, MALME-3M melanoma, SK-MEL-2 melanoma, SK-OV-3 ovarian carcinoma, DU-145 prostate carcinoma, PC-3 prostate carcinoma, all cell lines along with major genetic alterations are listed on Table 2. Pooled donor human umbilical vein endothelial cells (HUVEC, Lonza, cat. CC-2519) and human mesenchymal stem cells (hMSC, Lonza, cat. PT-2501) were purchased from Lonza (Walkersville, MD).
PDMR cell lines were grown in complete medium (DC medium): Dulbecco's modified Eagle's medium (DMEM)/F12 supplemented with 5% fetal bovine serum (FBS), 2 mM L-glutamine, 100 U/mL penicillin and 100 µg/ml streptomycin, 0.4 µg/ml hydrocortisone, 10 ng/ml epidermal growth factor (EGF) recombinant human protein, 24 µg/mL adenine, and 0.1 mg/mL primocin. During culture from frozen stock vials, PDMR cells were cultured in the same medium containing 10 µM Y-27632 (see Table 3). The PDCs were cultured in complete DMEM/F12 media without 10 microM Y-27632 dihydrochloride for at least two passages prior to the screen. The pooled donor HUVEC and hMSC were cultured in endothelial cell growth medium 2 (PromoCell, Heidelberg, Germany, cat. C-22011) and mesenchymal stem cell growth medium 2 (PromoCell, cat. C-28009), respectively. For all experiments, HUVEC and hMSC were used at passages </=5.
[…]

Where “and” joins values, the source holds several entries; their conditions need not be identical. Equal entries are not always repeated.
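Further: spheroids exposed to the agents for seven days before readout.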

As for `Cn1cnc2c(F)c(Nc3ccc(Br)cc3Cl)c(C(=O)NOCCO)cc21` + CCN1CCN(Cc2ccc(Nc3ncc(F)c(-c4cc(F)c5nc(C)n(C(C)C)c5c4)n3)nc2)CC1, the half-maximal inhibitory concentration (IC50) reads like this: (curve of first compound, second compound 0.01 µM) 1250 nM; (curve of first compound, second compound 0.0316 µM) 1130 nM; (curve of first compound, second compound 0.1 µM) 1150 nM; (curve of first compound, second compound 0.316 µM) 1400 nM; (curve of first compound, second compound 1 µM) 1320 nM. In addition, the viability, T/C was 97.1% (second compound 0.01 µM, first compound 0.00949 µM); 114% (second compound 0.01 µM, first compound 0.03 µM); 112% (second compound 0.01 µM, first compound 0.0949 µM); 114% (second compound 0.01 µM, first compound 0.3 µM); 61.3% (second compound 0.01 µM, first compound 0.949 µM); 13.9% (second compound 0.01 µM, first compound 3 µM). The viability, T/C was 121% (second compound 0.0316 µM, first compound 0.00949 µM); 120% (second compound 0.0316 µM, first compound 0.03 µM); 130% (second compound 0.0316 µM, first compound 0.0949 µM); 109% (second compound 0.0316 µM, first compound 0.3 µM); 56.8% (second compound 0.0316 µM, first compound 0.949 µM); 14.6% (second compound 0.0316 µM, first compound 3 µM). The viability, T/C reads like this: (second compound 0.1 µM, first compound 0.00949 µM) 112%; (second compound 0.1 µM, first compound 0.03 µM) 138%; (second compound 0.1 µM, first compound 0.0949 µM) 126%; (second compound 0.1 µM, first compound 0.3 µM) 99.7%; (second compound 0.1 µM, first compound 0.949 µM) 58.3%; (second compound 0.1 µM, first compound 3 µM) 15.9%. Besides, the viability, T/C is 142% (second compound 0.316 µM, first compound 0.00949 µM); 142% (second compound 0.316 µM, first compound 0.03 µM); 136% (second compound 0.316 µM, first compound 0.0949 µM); 116% (second compound 0.316 µM, first compound 0.3 µM); 63.4% (second compound 0.316 µM, first compound 0.949 µM); 23.4% (second compound 0.316 µM, first compound 3 µM). Also, the viability, T/C by setting is: (second compound 1 µM, first compound 0.00949 µM) 149%; (second compound 1 µM, first compound 0.03 µM) 142%; (second compound 1 µM, first compound 0.0949 µM) 138%; (second compound 1 µM, first compound 0.3 µM) 106%; (second compound 1 µM, first compound 0.949 µM) 59.5%; (second compound 1 µM, first compound 3 µM) 25.8%.

Take `C=CCn1c(=O)c2cnc(Nc3ccc(N4CCN(C)CC4)cc3)nc2n1-c1cccc(C(C)(C)O)n1`: the viability, T/C (compound 0.0316 µM) is 89.9% and 111%; the viability, T/C (compound 0.1 µM) was 106% and 111%; the viability, T/C (compound 0.316 µM) was 104% and 133%; the viability, T/C (compound 1 µM) is 35.1% and 43.7%; the viability, T/C (compound 3.16 µM) was 28.2% and 27.2%; the viability, T/C (compound 10 µM) was 27.9% and 24.9%. Under “curve of compound”, the 50% inhibitory concentration (IC50) was 768 nM and 786 nM.

The IC50 is the midpoint of a concentration-inhibition curve. One may read the viability, T/C as the ratio of treated to control.

These data come from PubChem BioAssay AID2060342 (Molecular Pharmacology Branch, DTP, NCI, 2025).
